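Protocol summary: plate cells (96-well), add compound at 5 concentrations, incubate 48 h, interpolate endpoints linearly. GI50: concentration for 50% inhibition of growth.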 Calls of active or inactive are those of the source. No stated cut-off is given here; in the data, active = GI50 up to about 1.1 µM and inactive = higher.
Experiments:
Assay in all cases: growth of human tumour cells (NCI), 48 h
HCT-116 = system: HCT-116
HCT-15 = system: HCT-15
HOP-62 = system: HOP-62
HT-29 = system: HT-29
IGROV-1 = system: IGROV-1
KM12 = system: KM12
LOX IMVI = system: LOX IMVI
M14 = system: M14
MCF7 = system: MCF7
MDA-N = system: MDA-N
NCI/ADR-RES = system: NCI/ADR-RES
OVCAR-8 = system: OVCAR-8
SF-295 = system: SF-295
SN12C = system: SN12C
SNB-19 = system: SNB-19
SNB-75 = system: SNB-75
SW-620 = system: SW-620
UACC-257 = system: UACC-257
UACC-62 = system: UACC-62
UO-31 = system: UO-31

Row | Structure (SMILES) | GI50 (HCT-116) | GI50 (HCT-15) | GI50 (HOP-62) | GI50 (HT-29) | GI50 (IGROV-1) | GI50 (KM12) | GI50 (LOX IMVI) | GI50 (M14) | GI50 (MCF7) | GI50 (MDA-N) | GI50 (NCI/ADR-RES) | GI50 (OVCAR-8) | GI50 (SF-295) | GI50 (SN12C) | GI50 (SNB-19) | GI50 (SNB-75) | GI50 (SW-620) | GI50 (UACC-257) | GI50 (UACC-62) | GI50 (UO-31)
1 | COc1ccc(CNc2nc3cc(C(F)(F)F)ccc3nc2-c2ccccc2)cc1OC | 30.3 µM (inactive) | 28.2 µM | 23.9 µM (inactive) | 21.1 µM (inactive) | 66.7 µM (inactive) | 29.5 µM (inactive) | 24.7 µM (inactive) | 49.3 µM (inactive) | 16.1 µM (inactive) | 37.2 µM (inactive) | 54.5 µM (inactive) | 54.6 µM (inactive) | 29.4 µM (inactive) | > 10 µM (inactive) | > 100 µM (inactive) | 37.3 µM (inactive) | 18.5 µM (inactive) | 28.4 µM (inactive) | 50.6 µM (inactive) | 23.7 µM (inactive)
2 | CC1=C(\C=C/C(C)=C/C=C/C(C)=C/C=C/C=C(C)\C=C\C=C(C)/C=C/C2=C(C)CCCC2(C)C)C(C)(C)CCC1 | 22.1 µM (inactive) | > 100 µM | > 100 µM (inactive) | 56.4 µM (inactive) | > 100 µM (inactive) | 39.6 µM (inactive) | > 100 µM (inactive) | > 100 µM (inactive) | 75.2 µM (inactive) | 40 µM (inactive) | > 100 µM (inactive) | > 100 µM (inactive) | > 100 µM (inactive) | > 100 µM (inactive) | > 100 µM (inactive) | > 100 µM (inactive) | > 100 µM (inactive) | > 100 µM (inactive) | > 100 µM (inactive) | > 100 µM (inactive)
3 | CC(C)[Si](Oc1cc2c3c(ccc2c(O)c1[C@@H](C)CO[Si](C)(C)C(C)(C)C)C(C)(C)CCC3)(C(C)C)C(C)C | > 100 µM (inactive) | > 100 µM | > 100 µM (inactive) | > 100 µM (inactive) | 87.5 µM (inactive) | > 100 µM (inactive) | 64.4 µM (inactive) | > 100 µM (inactive) | > 100 µM (inactive) | > 100 µM (inactive) | > 100 µM (inactive) | > 100 µM (inactive) | 92.3 µM (inactive) | > 100 µM (inactive) | > 100 µM (inactive) | 69.8 µM (inactive) | > 100 µM (inactive) | 29.4 µM (inactive) | > 100 µM (inactive) | > 100 µM (inactive)
4 | CC1OC2/C=C\CC(O)C(C)(C)C3CCC(C)C4(O3)O[B-]35OC(C(=O)OC1C2)C1(OC(CCC1C)C(C)(C)C(O)C/C=C\C1CC(OC(=O)C4O3)C(C)O1)O5 (stereo not given) | 2.01 µM (inactive) | 5.37 µM | 2.08 µM (inactive) | 2.75 µM (inactive) | 13.9 µM (inactive) | 3.07 µM (inactive) | 1.97 µM (inactive) | 2.11 µM (inactive) | 2.01 µM (inactive) | 3.15 µM (inactive) | 3.2 µM (inactive) | 3.13 µM (inactive) | 1.8 µM (inactive) | 2.69 µM (inactive) | 2.39 µM (inactive) | 0.39 µM (active) | 2.94 µM (inactive) | 1.77 µM (inactive) | 2.01 µM (inactive) | 17.7 µM (inactive)
5 | CCC1(O)CC(OC2CC(N(C)C)C(OC3CC(O)C(OC4OC(C)C(=O)C=C4N)C(C)O3)C(C)O2)c2c(cc3c(c2O)C(=O)c2c(O)cccc2C3=O)C1C(=O)OC (stereo not given) | < 0.001 µM (active) | 0.241 µM | 0.0184 µM (active) | 0.00889 µM (active) | 0.00302 µM (active) | 0.00525 µM (active) | 0.046 µM (active) | 0.0345 µM (active) | 0.01 µM (active) | 0.00682 µM (active) | 1.25 µM (inactive) | 0.00415 µM (active) | 0.0016 µM (active) | 0.158 µM (active) | 0.0282 µM (active) | 0.0402 µM (active) | < 0.001 µM (active) | 0.0211 µM (active) | 0.0121 µM (active) | 0.167 µM (active)
6 | O=c1ccc2cc(O)c(O)cc2o1 [ESCULETIN] | > 100 µM (inactive) | > 100 µM | > 100 µM (inactive) | > 100 µM (inactive) | > 100 µM (inactive) | > 100 µM (inactive) | > 100 µM (inactive) | > 100 µM (inactive) | > 100 µM (inactive) | > 100 µM (inactive) | > 100 µM (inactive) | > 100 µM (inactive) | > 100 µM (inactive) | > 100 µM (inactive) | > 100 µM (inactive) | > 100 µM (inactive) | > 100 µM (inactive) | > 100 µM (inactive) | > 100 µM (inactive) | > 100 µM (inactive)
